Earlier results, collected in patent publication US11147270B2, “Pesticide based on formation of formate anion in situ” (priority 2018, dated 2021).

Details: at 20° C.

Structure (SMILES): Cl [hydrochloric acid]
- vapor pressure: approximately 32452 mmHg
